pEC50, pIC50: −log10 of the molar value.
Legend:
[1] = Inhibition of dengue virus 2 NS2B-NS3 protease pre-incubated for 10 mins before Boc-Gly-Arg-Arg-peptidyl-4-methylcoumaryl-7-amide substrate addition and measured after 2 hrs by fluorescence based assay; parameters: species or system dengue virus type 2
dengue virus type 2 = assay: Antiviral activity against dengue virus 2 infected in BHK21 cells assessed as inhibition of virus-induced cytopathic effect after 4 days by resazurin dye based method; assay type: functional, cell-based; settings: Dengue virus, BHK-21, 96 h; read-out: EC50
[2] = Toxicity in BHK21 cells assessed a reduction in cell viability after 4 days by resazurin dye based method; parameters: species or system Mesocricetus auratus, BHK-21; settings: hamster
[3] = Stability assessed as dengue virus 2 NS2B-NS3 protease-mediated compound degradation at 200 uM in presence of […] incubated for 0 to 22.5 hrs by LC-MS method; assay type: ADME; settings: dengue virus type 2, 200 µM
[4] = Stability assessed as dengue virus 2 NS2B-NS3 protease-mediated compound degradation at 200 uM in presence of 100 nM enzyme incubated for 24 hrs by LC-MS method; assay type: ADME; settings: dengue virus type 2, 24 h
[5] = Stability assessed as dengue virus 2 NS2B-NS3 protease-mediated compound degradation at 200 uM in presence of […] incubated for 22.5 hrs by LC-MS method; assay type: ADME; settings: dengue virus type 2, 22.5 h

| pIC50 [1] | Stability [3] | Stability [4] | Stability [5] | SMILES | pEC50 (dengue virus type 2) | CC50 at 96 h [2] [µM] |
| --- | --- | --- | --- | --- | --- | --- |
| 5.77 | Unstable | Stable |  | C[C@@H]1NC(=O)[C@H](CCCCN)NC(=O)[C@H](CCCNC(=N)N)NC(=O)[C@H](CCCNC(=N)N)NC(=O)[C@@H](CCCNC(=N)N)NC(=O)[C@@H](Cc2ccccc2)NC(=O)[C@H](Cc2cccc3ccccc23)NC(=O)[C@H](CCc2ccccc2)NC1=O | 4.93 | 134 |
| 5.68 |  |  | Stable | C[C@@H]1NC[C@H](CCCCN)NC(=O)[C@H](CCCNC(=N)N)NC(=O)[C@H](CCCNC(=N)N)NC(=O)[C@@H](CCCNC(=N)N)NC(=O)[C@@H](Cc2ccccc2)NC(=O)[C@H](Cc2cccc3ccccc23)NC(=O)[C@H](CCc2ccccc2)NC1=O | 4.94 | 129 |

Source: ChEMBL document CHEMBL4033720, “Discovery of novel cyclic peptide inhibitors of dengue virus NS2B-NS3 protease with antiviral activity” (Bioorg Med Chem Lett, 2017)
